Here are results for 19 compounds from patent US12065430B2, “Indazole compound or salt thereof” (TAIHO PHARMACEUTICAL CO., LTD., priority 2018, dated 2024).

The assay has as its target G12C K-Ras4B (1-169) (Homo sapiens (Human), UniProt P01116, G12C). Description: Test of compounds on whether to bind to KRASG12C (LC-MS compound binding rate). The following applies: final compound concentration of 2 μM, 1 μM protein, 25° C. for 2 hours. On the procedure: Test compounds were prepared in the form of a 10 mM DMSO solution.
K-Ras4B (1-169) and G12C K-Ras4B (1-169) proteins were mixed and diluted with a buffer (1×TBS, 0.1 mM TCEP) to prepare individual 1 μM protein solutions. A 10 mM test compound was diluted tenfold with DMSO to make a 1 mM solution, and then diluted fivefold with DMSO to make a 200 μM solution. The 200 μM solution was further diluted fivefold to make a 40 μM solution. When the final compound concentration was 10 μM, 1 μL of a 200 μM test compound was added to 19 μL of a 1 μM protein solution. When the final compound concentration was 2 μM, 1 μL of a 40 μM test compound was added to 19 μL of a 1 μM protein solution. The mixtures were stored in an incubator at 25° C. for 2 hours, and 80 μL of a 1×TBS solution containing 0.2% formic acid was added thereto to end the reaction, followed by LC-MS measurement. LC-MS measurement was performed using Xevo G2-S Q-Tof manufactured by Waters, and reverse-phase chromatography was performed with a desalting column. A mass spectrum of positive ions was obtained by electrospray. For a mass spectrum, a spectrum of a polyvalent ion was collectively converted to a molecular weight by using OpenLynx software by the MaxEnt technique, and a compound binding rate was obtained from the ratio of a signal intensity that corresponds to the molecular weight of a protein to a signal intensity that corresponds to the molecular weight of a compound binding to the protein.
By obtaining the compound binding rate for K-Ras4B (1-169) and the compound binding rate for G12C K-Ras4B (1-169) at the same time, information of the selectivity for G12C K-Ras4B (1-169) was obtained at the same time.
The test compounds were measured at their final compound concentration of 2 μM. […] Almost no compounds of the present invention binded to K-Ras4B (1-169). The “binding rate” (%) for each of K-Ras4B (1-169) and G12C K-Ras4B (1-169) refers to the ratio of the signal intensity of binded forms to the sum of the signal intensity of non-binded forms and the signal intensity of binded forms.
Take `C=CC(=O)N1C[C@@H](CC)[C@@H](NC(=O)c2c(C)nc(CNc3n[nH]c4cc(Cl)c(C(C)(C)C)cc34)n2C)C1` [Example 69, N-((3R,4R)-1-acryloyl-4-ethylpyrrolidin-3-yl)-2-(((5-(tert-butyl)-6-chloro-1H-indazol-3-yl)amino)methyl)-1,4-dimethyl-1H-imidazole-5-carboxamide]: the “binding rate for G12C K-Ras4B (1-169)” value is recorded as “E (a binding rate of less than 20% is rated “E.”)”.
As for `C=CC(=O)N1CC(NC(=O)c2c(C(F)F)nc(CNc3n[nH]c4cc(Cl)c(C(C)(C)C)cc34)n2CC2CCCN2C(C)C)C1` (stereo not shown) [Example 95, N-(1-acryloylazetidin-3-yl)-2-(((5-(tert-butyl)-6-chloro-1H-indazol-3-yl)amino)methyl)-4-(difluoromethyl)-1-((1-isopropylpyrrolidine-2-yl)methyl)-1H-imidazole-5-carboxamide], the entry is “A (a binding rate of 80% or more is rated “A,”)”.
As for `C=CC(=O)N1CC(NC(=O)c2c(C)nc(CNc3n[nH]c4cc(Cl)c(C(C)(C)C)cc34)n2Cc2ccccc2)C1` [Example 15, N-(1-acryloylazetidin-3-yl)-1-benzyl-2-(((5-(tert-butyl)-6-chloro-1H-indazol-3-yl)amino)methyl)-4-methyl-1H-imidazole-5-carboxamide], the entry is “A (a binding rate of 80% or more is rated “A,”)”; as for `C=CC(=O)N1CC(NC(=O)c2c(F)nc(CNc3n[nH]c4cc(Cl)c(C(C)(C)C)cc34)n2C(C)C)C1` [Example 34, N-(1-acryloylazetidin-3-yl)-2-(((5-(tert-butyl)-6-chloro-1H-indazol-3-yl)amino)methyl)-4-fluoro-1-isopropyl-1H-imidazole-5-carboxamide], “A (a binding rate of 80% or more is rated “A,”)”; as for `C=CC(=O)N1CC(NC(=O)c2c(Cl)nc(CNc3n[nH]c4cc(Cl)c(C(=C)C(F)(F)F)cc34)n2C(C)C)C1` [Example 43, N-(1-acryloylazetidin-3-yl)-4-chloro-2-(((6-chloro-5-(3,3,3-trifluoroprop-1-en-2-yl)-1H-indazol-3-yl)amino)methyl)-1-isopropyl-1H-imidazole-5-carboxamide], “C (a binding rate of 40% or more and less than 60% is rated “C,”)”.
In the case of `C=CC(=O)N1CC(NC(=O)c2oc(CNc3n[nH]c4cc(Cl)c(C(C)(C)C)cc34)nc2C)C1` [Example 11, N-(1-acryloylazetidin-3-yl)-2-(((5-(tert-butyl)-6-chloro-1H-indazol-3-yl)amino)methyl)-4-methyloxazole-5-carboxamide], the “binding rate for G12C K-Ras4B (1-169)” value was “B (a binding rate of 60% or more and less than 80% is rated “B,”)”.
The same measure for `C=CC(=O)N1CC(NC(=O)c2c(Cl)nc(CNc3n[nH]c4cc(Cl)c(C(C)(C)C)cc34)n2C2CC=CC2)C1` [Example 98, N-(1-acryloylazetidin-3-yl)-2-(((5-(tert-butyl)-6-chloro-1H-indazol-3-yl)amino)methyl)-4-chloro-1-(cyclopent-3-en-1-yl)-1H-imidazole-5-carboxamide]: “A (a binding rate of 80% or more is rated “A,”)”; for `C=CC(=O)N1C[C@H](NC(=O)c2c(C)nc(CNc3n[nH]c4cc(Cl)c(C(C)(C)C)cc34)n2C)[C@@H](OC)C1` [Example 63, N-((3S,4S)-1-acryloyl-4-methoxypyrrolidin-3-yl)-2-(((5-(tert-butyl)-6-chloro-1H-indazol-3-yl)amino)methyl)-1,4-dimethyl-1H-imidazole-5-carboxamide]: “B (a binding rate of 60% or more and less than 80% is rated “B,”)”.
In the case of `C=CC(=O)N1CC(NC(=O)c2c(C)nc(CNc3n[nH]c4cc(Cl)c(C(C)(C)C)cc34)n2CCOC)C1` [Example 14, N-(1-acryloylazetidin-3-yl)-2-(((5-(tert-butyl)-6-chloro-1H-indazol-3-yl)amino)methyl)-1-(2-methoxyethyl)-4-methyl-1H-imidazole-5-carboxamide], the “binding rate for G12C K-Ras4B (1-169)” value was “B (a binding rate of 60% or more and less than 80% is rated “B,”)”.
For `C=CC(=O)N1CC(NC(=O)c2cc(CNc3n[nH]c4cc(Cl)c(C(C)(C)C)cc34)nn2C)C1` [Example 9, N-(1-acryloylazetidin-3-yl)-3-(((5-(tert-butyl)-6-chloro-1H-indazol-3-yl)amino)methyl)-1-methyl-1H-pyrazole-5-carboxamide], the “binding rate for G12C K-Ras4B (1-169)” value is “D (a binding rate of 20% or more and less than 40% is rated “D,”)”.
As for `C=CC(=O)N1CC(NC(=O)c2c(C)nc(CNc3n[nH]c4cc(Cl)c(C(C)(C)C)cc34)n2CC)C1` [Example 12, N-(1-acryloylazetidin-3-yl)-2-(((5-(tert-butyl)-6-chloro-1H-indazol-3-yl)amino)methyl)-1-ethyl-4-methyl-1H-imidazole-5-carboxamide], the “binding rate for G12C K-Ras4B (1-169)” value is “B (a binding rate of 60% or more and less than 80% is rated “B,”)”.
As for `C=CC(=O)N1CC(NC(=O)c2c(Cl)nc(CNc3n[nH]c4cc(Cl)c(C(C)(C)C)cc34)n2[C@@H]2CCN(CC(F)F)C2)C1` [Example 113, (R)—N-(1-acryloylazetidin-3-yl)-2-(((5-(tert-butyl)-6-chloro-1H-indazol-3-yl)amino)methyl)-4-chloro-1-(1-(2,2-difluoroethyl)pyrrolidin-3-yl)-1H-imidazole-5-carboxamide], the entry is “A (a binding rate of 80% or more is rated “A,”)”.
The same measure for `C=CC(=O)N1CC[C@@H](NC(=O)c2c(F)nc(CNc3n[nH]c4cc(Cl)c(C(C)(C)C)cc34)n2C)C1` [Example 72, (R)—N-(1-acryloylpyrrolidin-3-yl)-2-(((5-(tert-butyl)-6-chloro-1H-indazol-3-yl)amino)methyl)-4-fluoro-1-methyl-1H-imidazole-5-carboxamide]: “B (a binding rate of 60% or more and less than 80% is rated “B,”)”; for `C=CC(=O)N1CC(NC(=O)c2c(C)nc(CNc3n[nH]c4cc(Cl)c(C(C)(C)C)cc34)n2CCC)C1` [Example 19, N-(1-acryloylazetidin-3-yl)-2-(((5-(tert-butyl)-6-chloro-1H-indazol-3-yl)amino)methyl)-4-methyl-1-propyl-1H-imidazole-5-carboxamide]: “A (a binding rate of 80% or more is rated “A,”)”.
`C=CC(=O)N1CC(NC(=O)c2cnc(CNc3n[nH]c4cc(Cl)c(Br)cc34)n2C)C1` [Reference Example 1, N-(1-acryloylazetidin-3-yl)-2-(((5-bromo-6-chloro-1H-indazol-3-yl)amino)methyl)-1-methyl-1H-imidazole-5-carboxamide, reference compound]: the “binding rate for G12C K-Ras4B (1-169)” value is “E (a binding rate of less than 20% is rated “E.”)”.
As for `C=CC(=O)N1CC(NC(=O)c2cnc(CNc3n[nH]c4cc(Cl)c(C(C)(C)C)cc34)n2Cc2cc(OC)cc(OC)c2)C1` [Example 88, N-(1-acryloylazetidin-3-yl)-2-(((5-(tert-butyl)-6-chloro-1H-indazol-3-yl)amino)methyl)-1-(3,5-dimethoxybenzyl)-1H-imidazole-5-carboxamide], the “binding rate for G12C K-Ras4B (1-169)” value was “B (a binding rate of 60% or more and less than 80% is rated “B,”)”.
For the compound `C=CC(=O)N1CC[C@@H](N(C)C(=O)c2cnc(CNc3n[nH]c4cc(Cl)c(C(C)(C)C)cc34)n2C)C1` [Example 77, (R)—N-(1-acryloylpyrrolidin-3-yl)-2-(((5-(tert-butyl)-6-chloro-1H-indazol-3-yl)amino)methyl)-N,1-dimethyl-1H-imidazole-5-carboxamide], the “binding rate for G12C K-Ras4B (1-169)” value was “C (a binding rate of 40% or more and less than 60% is rated “C,”)”.
As for `C=CC(=O)N1CC(NC(=O)c2c(C)nc(CNc3n[nH]c4ccc(C(C)(C)C)cc34)n2C(C)C)C1` [Example 42, N-(1-acryloylazetidin-3-yl)-2-(((5-(tert-butyl)-1H-indazol-3-yl)amino)methyl)-1-isopropyl-4-methyl-1H-imidazole-5-carboxamide], the entry is “B (a binding rate of 60% or more and less than 80% is rated “B,”)”; as for `C=CC(=O)N1CC(NC(=O)c2c(C)nc(CNc3n[nH]c4cc(Cl)c(C(C)(C)C)cc34)n2C(C)CC)C1` (stereo not shown) [Example 20, N-(1-acryloylazetidin-3-yl)-1-(sec-butyl)-2-(((5-(tert-butyl)-6-chloro-1H-indazol-3-yl)amino)methyl)-4-methyl-1H-imidazole-5-carboxamide], “A (a binding rate of 80% or more is rated “A,”)”.
